For one data set, the system named is RAW 264.7 cells. Description: Cytotoxicity MTT assay. In kind it is cell-based, mouse. The note with it: 16 h. On the procedure: (§1) The presence of compounds can influence cellular basic physiological processes, suppress proliferation and even reduce cell survival, etc. In the community, MRSA generally causes respiratory infection. Therefore, cytotoxicity was evaluated to explore the effect of compounds 12c and 22c on the viability of the respiratory tract cells 16-HBE (human bronchial epithelial cell line). RAW 264.7 (mouse peritoneal macrophage cell line) and Caco-2 (human epithelial colorectal adenocarcinoma cell line) were also used to evaluate the cytotoxicity of compounds 12c and 22c by MTT assay.
Cytotoxicity of the test compounds was assessed using the conventional MTT method. RAW 264.7 murine macrophage cells, Caco-2 cells and 16-HBE were used in this experiment. The cells were seeded into 96-well plates at a density of 1.0 × 10^5 cells per well. After 4 h at 37 °C, the cells were treated with compounds 12c and 22c at various concentrations and incubated at 37 °C for 16 h. Next, MTT (0.5 mg/mL in PBS, 100 μL/well) was added sequentially to each well in a humidified atmosphere of 95% air and 5% CO2 incubator and the incubation continued for an additional four hours. […] At the end of this period, the absorbance was measured at 490 nm by a microplate spectrophotometer (BIO-TEK Instruments, Winooski, VT, USA).
(In general: Tetrazolium assays rely on reduction of a dye to a coloured formazan, in cell work by metabolically active cells.)

Data set [1] concerns MRSA ATCC 43300. Description: Post-antibiotic effect (PAE). In kind it is cell-based, Staphylococcus aureus. On the procedure:
PAE has been considered as pharmacodynamic assistance which provides a reference for the rational formulation of dosing regimen. PAE refers to the temporary suppression of bacterial growth following transient antibiotic treatment. PAE assays were conducted for compounds 12c and 22c.
PAE is calculated from growth curves on the difference in time required for the number (1 log10 CFU/mL) of drug-exposed and unexposed microbes. […] The PAE values of compounds 12c and 22c increased with increasing incubation time.
PAE of compounds 12c and 22c on MRSA ATCC 43300 was determined using MH broth according to our previous work. The final concentration of MRSA was 1 × 10^6 CFU/mL by dilution with MH broth. Compounds 12c, 22c and tiamulin were supplemented in the suspension at a final concentration of 2 × MIC and 4 × MIC, respectively. The negative control group contained untreated MRSA bacterial cells. The test tubes were incubated with a 37 °C constant temperature vibration incubator for 1 and 2 h. After incubation, the test compound was removed from the sample by diluting 1000-fold with the preheated MH broth. Next, 100 μL of suspension from each culture was 10-fold diluted in sterile saline and inoculated on MH agar plates at 0, 2, 4, 6 and 8 h after inoculation. The number of colonies was calculated after incubation at 37 °C for 24 h. The experiments were performed in triplicate.

The subject of a further data set is Caco-2 cells. Nature of the data set: Cytotoxicity MTT assay. In kind it is cell-based, human. The note with it: 1~8 μg/mL, 16 h. How it is done: as §1
(§2) Cytotoxicity of the test compounds was assessed using the conventional MTT method. RAW 264.7 murine macrophage cells, Caco-2 cells and 16-HBE were used in this experiment. The cells were seeded into 96-well plates at a density of 1.0 × 10^5 cells per well. After 4 h at 37 °C, the cells were treated with compounds 12c and 22c at various concentrations and incubated at 37 °C for 16 h. Next, MTT (0.5 mg/mL in PBS, 100 μL/well) was added sequentially to each well in a humidified atmosphere of 95% air and 5% CO2 incubator and the incubation continued for an additional four hours. After incubation, the medium was peeled off and DMSO (150 μL/well) was added to dissolve the cells, and then the incubation was continued for 30 min. At the end of this period, the absorbance was measured at 490 nm by a microplate spectrophotometer (BIO-TEK Instruments, Winooski, VT, USA).

Another data set has as its system 16-HBE cells. Description: Cytotoxicity MTT assay. In kind it is cell-based, human. Conditions: 1~8 μg/mL, 16 h. On the procedure: as §1, §2
The test system of data set [2] is MRSA ATCC 43300. Nature of the data set: MIC/MBC by broth dilution (CLSI). The class given is cell-based, Staphylococcus aureus. Conditions: for MIC: MRSA ATCC 43300, broth dilution, 24 h, 37 °C. In outline: (§3)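 CLSI broth dilution used twofold compound series from 64 to 0.0625 µg/mL (stocks in water with 2.5% DMSO and 2.5% Tween-80) and a final inoculum of 5 × 10^5 CFU/mL, in triplicate. For MBC, 25 µL from wells without visible growth was plated on MH agar and cultured 24 h at 37 °C.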

For a further data set, the system named is S. aureus 144. Description: MIC/MBC by broth dilution (CLSI). Conditions: Staphylococcus aureus; S. aureus 144 (clinical strain). The class given is cell-based. A digest of the protocol: as §3
A general note: Dilution methods test growth across graded concentrations, often in twofold steps.

For a further data set, the system named is S. aureus ATCC 29213. Nature of the data set: MIC/MBC by broth dilution (CLSI). The class given is cell-based. Conditions: Staphylococcus aureus, ATCC29213. In outline:
as §3

Another data set relates to S. aureus AD3. Description: MIC/MBC by broth dilution (CLSI). Conditions: Staphylococcus aureus; S. aureus AD3 (clinical strain). In kind it is cell-based. A digest of the protocol: as §3
Data set [3] deals with MRSA ATCC 43300. Description: Constant concentration time–kill curves. In kind it is cell-based, Staphylococcus aureus. How it is done: Time–kill kinetic assays were performed, which were used to investigate the in vitro bactericidal kinetic effect of compounds 12c, 19c, 22c and tiamulin.
Time–kill curve assays were established with the MIC value to investigate the antibacterial effect of constant drug concentration on MRSA. […] MRSA ATCC 43300 was incubated in MH broth at 37 °C for 4.5 h and diluted to 1 × 10^6 CFU/mL in MH broth. The saline control group was subjected to the same schedule but 0.9% saline water was added instead of the test compound. All the samples were incubated in an oscillating thermostatic at 37 °C, and then 100 μL of the mixture was extracted to 900 μL of sterile saline (0.9%) at 0, 3, 6, 9, 12 and 24 h, respectively. Samples were serially diluted 10-fold in sterile saline (0.9%) and inoculated onto agar plates. The colonies were counted after incubation at 37 °C for 24 h. Three independent experiments were performed according to our previous work. Time–kill curves were constructed by plotting the log10 CFU per millilitre versus time, and the change in bacterial concentration was determined.

One compound from paper PMC10180054, “Design, Synthesis and Biological Evaluation of Novel Pleuromutilin Derivatives Containing 6-Chloro-1-R-1H-pyrazolo[3,4-d]pyrimidine-4-amino Side Chain” (Molecules, 2023) can be followed below.

Values after ≈ are worked out from the molar mass of the structure shown. “Also recorded” adds a separate entry of the source. Read-outs that look alike come from different tables or passages of the source.

For the compound `C=C[C@]1(C)C[C@@H](OC(=O)CSc2ccc(Nc3nc(Cl)nc4c3cnn4-c3ccc(F)c(F)c3)cc2)[C@]2(C)[C@H](C)CC[C@]3(CCC(=O)[C@H]32)[C@@H](C)[C@@H]1O` [Compound 22c, 22-[4-(6-Chloro-1-(3,4-difluorophenyl)-1H-pyrazolo[3,4-d]pyrimidine-4-yl)amino-Phenylsulfanyl]-22-deoxypleuromutilin], the melting point was in the range of 109 to 113 °C. Further, the “effect on viability of RAW 264.7 cells” value in the data set on RAW 264.7 cells (8 µg/mL) is “slight inhibition”. Further, in the data set on RAW 264.7 cells (≤8 μg/mL), the “effect on viability of RAW 264.7 cells” value was “no significant inhibition”. This compound also registered a PAE with MRSA ATCC 43300 [1] (2 × MIC, exposure for 1 h) of 0.92 h. Moreover, the PAE in the data set with MRSA ATCC 43300 [1] (2 × MIC, exposure for 2 h) was 2.18 h. This compound also showed a PAE in the data set with MRSA ATCC 43300 [1] (4 × MIC, exposure for 1 h) of 0.93 h. In the data set with MRSA ATCC 43300 [1] (4 × MIC, exposure for 2 h), this compound displayed a PAE of 2.68 h. For the same compound, in the data set with Caco-2 cells, the “effect on viability of Caco-2 cells” value is on record as “no significant inhibition; also recorded: did not affect the viability”. Further, the “effect on viability of 16-HBE cells” value in the data set with 16-HBE cells was “no significant inhibition; also recorded: did not affect the viability”. Besides, in the data set with MRSA ATCC 43300 [2], the MIC is recorded as 0.25/0.25 μg/mL. Also, the MBC in the data set with MRSA ATCC 43300 [2] (Staphylococcus aureus, MRSA ATCC 43300, 99.9% of the bacteria killed) came out at 0.25 µg/mL (≈ 0.333 µM). Also, the MIC in the data set with MRSA ATCC 43300 [2] (Staphylococcus aureus, read-out: MIC) came out at 0.25 µg/mL (≈ 0.333 µM). Also, the MBC/MIC ratio with MRSA ATCC 43300 [2] (against MRSA) was at most 2. In the data set with S. aureus 144, this compound came in with an MBC of 1 µg/mL (≈ 1.33 µM) and an MIC of 0.5 µg/mL (≈ 0.666 µM). The compound also showed an MBC against S. aureus ATCC 29213 (S. aureus ATCC 29213) of 0.5 µg/mL (≈ 0.666 µM). Further, the lowest concentration to inhibit growth against S. aureus ATCC 29213 (S. aureus ATCC 29213, broth dilution, 24 h, 37 °C) (MIC) was 0.25 µg/mL (≈ 0.333 µM). In the data set on S. aureus AD3, this compound yielded an MBC of 0.25 µg/mL (≈ 0.333 µM) and a minimum inhibitory concentration (MIC) of 0.125 µg/mL (≈ 0.167 µM). In the data set on MRSA ATCC 43300 [3] (2 × MIC, 24 h incubation), the “MRSA killed in time–kill assay” value amounted to 99.99% and the “reduction of MRSA in time–kill assay” value is listed as −4.47 log10 CFU/mL. Moreover, the “reduction of MRSA in time–kill assay” value in the data set on MRSA ATCC 43300 [3] (4 × MIC) is −5.79 log10 CFU/mL. Also, the “type of bactericidal kinetics” value in the data set with MRSA ATCC 43300 [3] (time–kill curves, 1 to 32 × MIC) is on record as “time-dependent”.

In general, melting point refers to the temperature of the solid-liquid transition. Broadly, the MIC is the lowest concentration found to suppress growth. The MBC is the lowest tested concentration that kills the bacteria rather than only halting them. Higher therefore signals weaker bactericidal potency.
